Holding throughout (assay): ≥ marks a high value that may be exact or a test limit, other limits are often not marked, values filed in µg/mL are converted to µM
In experiment [1] the test system is Escherichia coli.
In experiment [2] the test system is Enterococcus faecalis ATCC 29212.
For experiment [3], the system named is Escherichia coli ATCC 25922.
The test system of experiment [4] is Pseudomonas aeruginosa.
Experiment [5] has as its system Staphylococcus aureus.
Experiment [6] deals with Candida albicans ATCC 90028.
Experiment [7] has as its system Staphylococcus aureus ATCC 29213.
The subject of experiment [8] is Pseudomonas aeruginosa ATCC 27853.

What is called MIC is the least concentration at which growth counts as inhibited. High values mean a need for much substance, low ones inhibition by little substance.

≈ marks a conversion by molar mass, not a printed value.

As for `CC(C)[C@@H]1NC(=O)[C@@H]2CSSC[C@H](NC(=O)[C@H](Cc3ccc(O)cc3)NC(=O)[C@@H](N)CSSC[C@@H](C(=O)O)NC1=O)C(=O)N[C@@H](CCCN=C(N)N)C(=O)N[C@@H](CCCN=C(N)N)C(=O)N[C@@H](CCCN=C(N)N)C(=O)N[C@@H](Cc1ccccc1)C(=O)N2` [CYCRRRFCVC], in experiment [1], the MIC came out at 10.8 µM (≈ 14.1 µg/mL).
For `CSCC[C@H](NC(=O)[C@H](CCCN=C(N)N)NC(=O)[C@H](Cc1c[nH]c2ccccc12)NC(=O)[C@H](CCC(N)=O)NC(=O)[C@H](Cc1c[nH]c2ccccc12)NC(=O)[C@H](CCCN=C(N)N)NC(=O)[C@H](CCCN=C(N)N)NC(=O)[C@H](C)NC(=O)[C@H](CCCCN)NC(=O)[C@@H](N)Cc1ccccc1)C(=O)O` [FKARRWQWRM], the figures for the MIC in experiment [2] and in experiment [3] were 68.4 µM (≈ 100 µg/mL) and 34.2 µM (≈ 50.1 µg/mL), respectively.
Take `CC[C@H](C)[C@H](NC(=O)CN)C(=O)N[C@@H](C)C(=O)N[C@@H](CCCCN)C(=O)N[C@@H](Cc1ccccc1)C(=O)NCC(=O)N[C@@H](CCCCN)C(=O)N[C@@H](C)C(=O)N[C@@H](C)C(=O)N[C@@H](C)C(=O)N[C@@H](Cc1cnc[nH]1)C(=O)N[C@@H](Cc1ccccc1)C(=O)NCC(=O)N[C@@H](CCCCN)C(=O)N[C@@H](CCCCN)C(=O)N[C@@H](Cc1c[nH]c2ccccc12)C(=O)N[C@H](C(=O)NCC(=O)N[C@@H](CCC(=O)O)C(=O)N[C@@H](CC(C)C)C(=O)N[C@@H](CCSC)C(=O)N[C@@H](CC(N)=O)C(=O)N[C@@H](CO)C(N)=O)C(C)C` [GIAKFGKAAAHFGKKWVGELMNS]: the MIC in experiment [1] is 75 µM (≈ 184 µg/mL); in experiment [4], above 75 µM; in experiment [5] it was above 75 µM.
As for `CC[C@H](C)[C@H](NC(=O)CN)C(=O)NCC(=O)N[C@@H](CCCCN)C(=O)N[C@@H](Cc1ccccc1)C(=O)N[C@H](C(=O)N[C@@H](Cc1cnc[nH]1)C(=O)N[C@@H](CO)C(=O)N[C@@H](C)C(=O)N[C@@H](CCCCN)C(=O)N[C@@H](CCCCN)C(=O)N[C@@H](Cc1ccccc1)C(=O)NCC(=O)N[C@@H](CCCCN)C(=O)N[C@@H](CC(C)C)C(=O)N[C@@H](Cc1ccccc1)C(=O)N[C@H](C(=O)NCC(=O)N[C@@H](CCC(=O)O)C(=O)N[C@H](C(=O)N[C@@H](CCSC)C(=O)N[C@@H](CC(N)=O)C(=O)N[C@@H](CO)C(N)=O)[C@@H](C)CC)C(C)C)[C@@H](C)CC` [GIGKFIHSAKKFGKLFVGEIMNS], the figures for the MIC in experiment [1], in experiment [4] and in experiment [5] were 26.9 µM (≈ 67.4 µg/mL), 76 µM (≈ 191 µg/mL) and 38 µM (≈ 95.3 µg/mL), respectively.
For `CC[C@H](C)[C@H](NC(=O)CN)C(=O)N[C@@H](CCSC)C(=O)N[C@@H](CC(=O)O)C(=O)N[C@H](C(=O)N[C@H](C(=O)N[C@@H](CCCCN)C(=O)N[C@@H](CC(N)=O)C(=O)N[C@@H](C)C(=O)N[C@@H](C)C(=O)N[C@@H](CCCCN)C(=O)N[C@@H](CC(=O)O)C(=O)N[C@@H](CC(C)C)C(=O)N[C@@H](C)C(=O)NCC(=O)N[C@@H](CCC(N)=O)C(=O)N[C@@H](CC(C)C)C(=O)N[C@@H](CC(=O)O)C(=O)N[C@@H](CCCCN)C(=O)N[C@@H](CC(C)C)C(=O)N[C@@H](CCCCN)C(=O)N[C@H]1CSSC[C@@H](C(=O)O)NC(=O)CNC(=O)[C@H]([C@@H](C)O)NC(=O)[C@H]([C@@H](C)CC)NC(=O)[C@H](CCCN=C(N)N)NC1=O)C(C)C)[C@@H](C)O` [GIMDTVKNAAKDLAGQLDKLKCRITGC], the MIC in experiment [6] is at least 130 µM; in experiment [3], 23 µM (≈ 65.8 µg/mL).
Take `CC[C@@H](C)[C@H](N=C(O)[C@H](CCCCN)N=C(O)[C@H](CS)N=C(O)[C@H](CCCCN)N=C(O)[C@H](CC(C)C)N=C(O)CN=C(O)C(CCC(=O)O)N=C(O)[C@H](CC(C)C)N=C(O)[C@H](CCCCN)N=C(O)CN=C(O)[C@H](C)N=C(O)[C@H](N=C(O)[C@H](CC(=O)O)N=C(O)[C@H](CCCCN)N=C(O)[C@H](C)N=C(O)[C@H](C)N=C(O)CN=C(O)C(CCCCN)N=C(O)C(CC(C)C)N=C(O)[C@H](N=C(O)C(CC(=O)O)N=C(O)[C@H](CC(C)C)N=C(O)[C@H](Cc1ccccc1)N=C(O)C(CC(C)C)N=C(O)CN)C(C)O)C(C)C)C(O)=N[C@H](C(O)=NCC(O)=N[C@H](CS)C(O)=N[C@H](CCCCN)C(O)=N[C@H](CC(C)C)C(=O)N1CCCC1C(=O)O)[C@@H](C)O` (stereo partly specified) [GLFLDTLKGAAKDVAGKLEGLKCKITGCKLP]: the MIC in experiment [5] came out at 60 µM (≈ 191 µg/mL).
Turning to `CC(=O)N[C@@H](CCCCN)C(=O)N[C@@H](CC(C)C)C(=O)N[C@@H](CC(C)C)C(=O)N[C@@H](CCCCN)C(=O)N[C@@H](CC(C)C)C(=O)N[C@@H](CC(C)C)C(=O)N[C@@H](CCCCN)C(=O)N[C@@H](CCCCN)C(=O)N1CCC[C@H]1C(=O)N[C@@H](CC(C)C)C(=O)N[C@@H](CCCCN)C(=O)N[C@@H](CC(C)C)C(=O)N[C@@H](CC(C)C)C(=O)N[C@@H](CCCCN)C(N)=O` [KLLKLLKKPLKLLK], the MIC in experiment [3] and in experiment [7] was above 80 µM throughout.
`CC[C@H](C)[C@H](NC(=O)[C@H](CCCN=C(N)N)NC(=O)[C@H](CCC(N)=O)NC(=O)[C@@H](NC(=O)[C@@H](NC(=O)[C@H](CCCN=C(N)N)NC(=O)[C@@H](N)CCCCN)[C@@H](C)CC)C(C)C)C(=O)N[C@@H](CCCCN)C(=O)N[C@@H](C)C(=O)N[C@@H](Cc1ccccc1)C(=O)N[C@@H](CC(C)C)C(=O)N[C@@H](CCCN=C(N)N)C(=O)O` [KRIVQRIKAFLR]: the MIC came to 5 µM (≈ 7.64 µg/mL) in experiment [6], 1.25 µM (≈ 1.91 µg/mL) in experiment [3], 1.25 µM (≈ 1.91 µg/mL) in experiment [8] and 2.5 µM (≈ 3.82 µg/mL) in experiment [7].
Turning to `CC[C@H](C)[C@H](NC(=O)[C@H](CCCN=C(N)N)NC(=O)[C@@H](N)CCCCN)C(=O)N[C@H](C(=O)N[C@@H](CCC(N)=O)C(=O)N[C@@H](CCCN=C(N)N)C(=O)N[C@@H](CCCCN)C(=O)N[C@@H](CCCCN)C(=O)N[C@@H](CC(=O)O)C(=O)N[C@@H](Cc1ccccc1)C(=O)N[C@@H](CC(C)C)C(=O)N[C@@H](CCCN=C(N)N)C(=O)O)C(C)C` [KRIVQRKKDFLR], the MIC is at least 40 µM in experiment [6], 20 µM (≈ 31.7 µg/mL) in experiment [3], 40 µM (≈ 63.5 µg/mL) in experiment [8] and 40 µM (≈ 63.5 µg/mL) in experiment [7].
Consider `CC[C@H](C)[C@H](NC(=O)[C@H](Cc1ccc(O)cc1)NC(=O)[C@H](Cc1c[nH]c2ccccc12)NC(=O)[C@H](CC(C)C)NC(=O)[C@H](Cc1c[nH]c2ccccc12)NC(=O)[C@H](CCCN=C(N)N)NC(=O)[C@@H](NC(=O)[C@@H](NC(=O)[C@H](CCCN=C(N)N)NC(=O)[C@H](Cc1ccccc1)NC(=O)[C@H](Cc1c[nH]c2ccccc12)NC(=O)[C@H](CCCN=C(N)N)NC(=O)[C@H](Cc1c[nH]c2ccccc12)NC(=O)[C@H](CC(C)C)NC(=O)[C@H](CCCN=C(N)N)NC(=O)[C@H](C)NC(=O)[C@H](Cc1c[nH]c2ccccc12)NC(=O)[C@@H](N)CCCCN)[C@@H](C)CC)[C@@H](C)O)C(=O)N[C@@H](CCCCN)C(N)=O` [KWARLWRWFRITRWLWYIK], for which the MIC in experiment [1] and in experiment [5] was above 36.2 µM each time.
Molecule `CC[C@H](C)[C@H](NC(=O)[C@H](Cc1ccccc1)NC(=O)[C@H](CO)NC(=O)[C@H](CCCCN)NC(=O)[C@H](Cc1c[nH]c2ccccc12)NC(=O)[C@@H](N)CCCCN)C(=O)N[C@@H](CCCCN)C(=O)N[C@@H](CCCCN)C(=O)N[C@@H](CO)C(=O)N[C@H](C(=O)N[C@@H](CO)C(=O)N[C@@H](CCCCN)C(=O)N[C@@H](Cc1ccccc1)C(=O)N[C@@H](CC(C)C)C(=O)N[C@@H](Cc1cnc[nH]1)C(=O)N[C@@H](CO)C(=O)N[C@@H](C)C(=O)N[C@@H](CCCCN)C(=O)N[C@@H](CCCCN)C(=O)N[C@@H](Cc1ccccc1)C(N)=O)[C@@H](C)O` [KWKSFIKKSTSKFLHSAKKF] registered an MIC in experiment [4] of 20.6 µM (≈ 50 µg/mL).
`CC(=O)N[C@@H](CC(C)C)C(=O)N[C@@H](CCCCN)C(=O)N[C@@H](CCCCN)C(=O)N[C@@H](CC(C)C)C(=O)N[C@@H](CC(C)C)C(=O)N[C@@H](CCCCN)C(=O)N[C@@H](CC(C)C)C(=O)N[C@@H](CC(C)C)C(=O)N[C@@H](CCCCN)C(=O)N[C@@H](CCCCN)C(=O)N[C@@H](CC(C)C)C(=O)N1CCC[C@H]1C(=O)N[C@@H](CCCCN)C(=O)N[C@@H](CC(C)C)C(N)=O` [LKKLLKLLKKLPKL]: the MIC turned out to be 5 µM (≈ 8.59 µg/mL) in experiment [3] and 10 µM (≈ 17.2 µg/mL) in experiment [7].
In the same order, the values of `CC(=O)N[C@@H](CC(C)C)C(=O)N[C@@H](CCCCN)C(=O)N[C@@H](CCCCN)C(=O)N[C@@H](CC(C)C)C(=O)N[C@@H](CC(C)C)C(=O)N[C@@H](CCCCN)C(=O)N[C@@H](CC(C)C)C(=O)N[C@@H](CC(C)C)C(=O)N1CCC[C@H]1C(=O)N[C@@H](CCCCN)C(=O)N[C@@H](CC(C)C)C(=O)N[C@@H](CC(C)C)C(=O)N[C@@H](CCCCN)C(=O)N[C@@H](CC(C)C)C(N)=O` [LKKLLKLLPKLLKL] are 5 µM (≈ 8.51 µg/mL) and 2.5 µM (≈ 4.26 µg/mL).
As to `CSCC[C@H](NC(=O)[C@@H](NC(=O)[C@H](CCCN=C(N)N)NC(=O)[C@H](Cc1ccccc1)NC(=O)[C@H](C)NC(=O)[C@H](C)NC(=O)[C@H](CCCCN)NC(=O)[C@H](CC(C)C)NC(=O)[C@H](Cc1c[nH]c2ccccc12)NC(=O)[C@H](C)NC(=O)[C@@H]1CCCN1C(=O)[C@@H](N)CCCN=C(N)N)C(C)C)C(=O)N[C@@H](CCCN=C(N)N)C(=O)N[C@@H](C)C(=O)N[C@@H](CS)C(=O)N[C@H](C(N)=O)C(C)C` [RPAWLKAAFRVMRACV], the MIC in experiment [4] was determined as 4.27 µM (≈ 8 µg/mL).
`NC(=O)[C@H](CCCN=C(N)N)NC(=O)[C@H](CCCN=C(N)N)NC(=O)[C@H](Cc1c[nH]c2ccccc12)NC(=O)[C@H](Cc1c[nH]c2ccccc12)NC(=O)[C@H](CCCN=C(N)N)NC(=O)[C@H](CCCN=C(N)N)NC(=O)[C@H](Cc1c[nH]c2ccccc12)NC(=O)[C@H](Cc1c[nH]c2ccccc12)NC(=O)[C@H](Cc1c[nH]c2ccccc12)NC(=O)[C@H](CCCN=C(N)N)NC(=O)[C@H](CCCN=C(N)N)NC(=O)[C@@H](N)CCCN=C(N)N` [RRRWWWRRWWRR]: in experiment [4], the MIC was found to be 1.96 µM (≈ 4 µg/mL).
